This experiment deals with T1, rat adrenergic α1A receptor (Rattus norvegicus, UniProt P43140).
T1 construct: rat adrenergic α1A receptor obtained from Wistar Rat submaxillary glands; from tissue; host or cells: Wistar Rat submaxillary glands
T1 sequence (P43140 1-466): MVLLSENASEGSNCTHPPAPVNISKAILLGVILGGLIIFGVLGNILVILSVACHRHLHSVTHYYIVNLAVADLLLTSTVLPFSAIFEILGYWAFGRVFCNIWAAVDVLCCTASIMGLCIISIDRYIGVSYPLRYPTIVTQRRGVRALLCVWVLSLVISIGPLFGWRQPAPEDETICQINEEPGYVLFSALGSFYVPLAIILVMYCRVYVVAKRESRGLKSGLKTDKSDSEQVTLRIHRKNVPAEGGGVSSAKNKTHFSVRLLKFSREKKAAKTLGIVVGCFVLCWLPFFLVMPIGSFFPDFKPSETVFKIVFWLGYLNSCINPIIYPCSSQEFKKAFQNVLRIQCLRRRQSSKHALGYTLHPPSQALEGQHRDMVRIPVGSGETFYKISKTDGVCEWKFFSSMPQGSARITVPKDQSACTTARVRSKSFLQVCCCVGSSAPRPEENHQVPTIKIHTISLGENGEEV
The experiment in a line: Adrenergic α1A radioligand binding assay. The settings on record: [3H]Prozosin specific binding, read-out: Percent Inhibition of ligand binding, Adrenergic (0.1 μM ligand conc.) α1A. The method, then: To evaluate in radioligand binding assays the activity of compounds of the invention, rat adrenergic α1A receptor obtained from Wistar Rat submaxillary glands (Michel, A. D. et al., Br. J. Pharmacol. (1989), 98:883] in a modified Tris-HCl buffer (50 mM Tris-HCl buffer, pH 7.4, 0.5 mM EDTA) was used. Compounds of the invention were incubated with 0.25 nM [^3H]Prozosin for 60 min. at 25° C. Non-specific binding was estimated in the presence of 10 μM phentolamine. Receptor proteins were filtered and washed, the filters were then counted to determine [^3H]Prozosin specifically bound. Compounds of the invention were screened at 1 μM or lower, using 1% DMSO as vehicle. Compounds of the invention were tested in this biochemical assay. Biochemical assay results for representative compounds were presented as the percent inhibition of specific binding in Table 3.

The structures appear in SMILES notation.

For `Cc1ccc2c(c1)c1c(n2C(=O)Cc2ccc(Cl)cc2)CN2CCC1C2` (stereo not drawn) [Compound 36], the inhibition at 0.1 µM was -18%.

With `C/C(=C\n1c2c(c3cc(C)ccc31)C1CCN(C2)C1)c1ccncc1` (stereo not drawn) [Compound 44], the inhibition at 0.1 µM is -7%.

For `COc1ccc(/C(C)=C/n2c3c(c4cc(C)ccc42)C2CCN(C3)C2)cc1` (stereo not drawn) [Compound 45], the inhibition at 0.1 µM stood at 24%.

As to `C/C(=C\n1c2c(c3cc(C)ccc31)C1CCN(C2)C1)c1ccc(Cl)cc1Cl` (stereo not drawn) [Compound 33], the inhibition at 0.1 µM amounted to 3%.

As for `C/C(=C\n1c2c(c3cc(C)ccc31)C1CCN(C2)C1)c1ccc(Cl)cc1` (stereo not drawn) [Compound 32], the inhibition at 0.1 µM amounted to 36%.

`C/C(=C\n1c2c(c3cc(C)ccc31)C1CCN(C2)C1)c1ccccc1F` (stereo not drawn) [Compound 38]: the inhibition at 0.1 µM was determined as 14%.

In general, inhibition refers to the relative decrease from the control value, in per cent.
